Measured values: ChEMBL document CHEMBL4017512 (J Med Chem, 2017)

Assays:
[1] = tested on: L1210; experiment: Antiproliferative activity against mouse L1210 cells after 72 hrs by phosphatase assay; format: functional, cell-based; conditions: L1210, 72 h
[2] = tested on: HCT-116; experiment: Antiproliferative activity against human HCT116 cells after 72 hrs by phosphatase assay; format: functional, cell-based; conditions: HCT-116, 72 h
[3] = Cytotoxicity against human HCT116/VM46 cells assessed as reduction in cell viability after 72 hrs by phosphatase assay; format: cell-based; conditions: HCT-116/VM46, 72 h

Row | SMILES | IC50 [1] [nM] | IC50 [2] [nM] | IC50 [3] [nM]
1 | CC[C@]1(NC(=O)c2ccc(-c3ccccc3)cc2)C[C@H]2CN(CCc3c([nH]c4ccccc34)[C@@](C(=O)OC)(c3cc4c(cc3OC)N(C)[C@H]3[C@@](O)(C(=O)OC)[C@H](OC(C)=O)[C@]5(CC)C=CCN6CC[C@]43[C@@H]65)C2)C1 | 5.5 | 5.4 | 60
2 | CC[C@]1(NC(=O)/C=C/c2cccnc2)C[C@H]2CN(CCc3c([nH]c4ccccc34)[C@@](C(=O)OC)(c3cc4c(cc3OC)N(C)[C@H]3[C@@](O)(C(=O)OC)[C@H](OC(C)=O)[C@]5(CC)C=CCN6CC[C@]43[C@@H]65)C2)C1 | 5.9 | 5.7 | 320
3 | CC[C@]1(NC(=O)c2ccc(NC)cc2)C[C@H]2CN(CCc3c([nH]c4ccccc34)[C@@](C(=O)OC)(c3cc4c(cc3OC)N(C)[C@H]3[C@@](O)(C(=O)OC)[C@H](OC(C)=O)[C@]5(CC)C=CCN6CC[C@]43[C@@H]65)C2)C1 | 0.38 | 0.33 | 6.2
4 | CC[C@]1(NC(=O)c2ccc(OC(C)C)cc2)C[C@H]2CN(CCc3c([nH]c4ccccc34)[C@@](C(=O)OC)(c3cc4c(cc3OC)N(C)[C@H]3[C@@](O)(C(=O)OC)[C@H](OC(C)=O)[C@]5(CC)C=CCN6CC[C@]43[C@@H]65)C2)C1 | 0.7 | 0.8 | 6.6
5 | CC[C@]1(NC(=O)c2ccc3c(c2)C(C)(C)CCC3(C)C)C[C@H]2CN(CCc3c([nH]c4ccccc34)[C@@](C(=O)OC)(c3cc4c(cc3OC)N(C)[C@H]3[C@@](O)(C(=O)OC)[C@H](OC(C)=O)[C@]5(CC)C=CCN6CC[C@]43[C@@H]65)C2)C1 | 7.4 | 7.8 | 50
6 | CC[C@]1(NC(=O)c2cn(C)cn2)C[C@H]2CN(CCc3c([nH]c4ccccc34)[C@@](C(=O)OC)(c3cc4c(cc3OC)N(C)[C@H]3[C@@](O)(C(=O)OC)[C@H](OC(C)=O)[C@]5(CC)C=CCN6CC[C@]43[C@@H]65)C2)C1 | 80 | 50 | > 1000
7 | CC[C@]1(NC(=O)C2CCN(C)CC2)C[C@H]2CN(CCc3c([nH]c4ccccc34)[C@@](C(=O)OC)(c3cc4c(cc3OC)N(C)[C@H]3[C@@](O)(C(=O)OC)[C@H](OC(C)=O)[C@]5(CC)C=CCN6CC[C@]43[C@@H]65)C2)C1 | 5300 | 4400 | 6600
8 | CC[C@]1(NC(=O)c2ccc(OCc3ccccc3)cc2)C[C@H]2CN(CCc3c([nH]c4ccccc34)[C@@](C(=O)OC)(c3cc4c(cc3OC)N(C)[C@H]3[C@@](O)(C(=O)OC)[C@H](OC(C)=O)[C@]5(CC)C=CCN6CC[C@]43[C@@H]65)C2)C1 | 5.4 | 5.7 | 55
9 | CC[C@]1(NC(=O)C2CCOCC2)C[C@H]2CN(CCc3c([nH]c4ccccc34)[C@@](C(=O)OC)(c3cc4c(cc3OC)N(C)[C@H]3[C@@](O)(C(=O)OC)[C@H](OC(C)=O)[C@]5(CC)C=CCN6CC[C@]43[C@@H]65)C2)C1 | 70 | 35 | 3500
10 | CC[C@]1(NC(=O)c2ccc(OC)cc2F)C[C@H]2CN(CCc3c([nH]c4ccccc34)[C@@](C(=O)OC)(c3cc4c(cc3OC)N(C)[C@H]3[C@@](O)(C(=O)OC)[C@H](OC(C)=O)[C@]5(CC)C=CCN6CC[C@]43[C@@H]65)C2)C1 | 6.2 | 6.4 | 70
11 | CC[C@]1(NC(=O)c2ccccc2C)C[C@H]2CN(CCc3c([nH]c4ccccc34)[C@@](C(=O)OC)(c3cc4c(cc3OC)N(C)[C@H]3[C@@](O)(C(=O)OC)[C@H](OC(C)=O)[C@]5(CC)C=CCN6CC[C@]43[C@@H]65)C2)C1 | 55 | 50 | 540
12 | CC[C@]1(NC(=O)c2ccc(OC)c(C)c2)C[C@H]2CN(CCc3c([nH]c4ccccc34)[C@@](C(=O)OC)(c3cc4c(cc3OC)N(C)[C@H]3[C@@](O)(C(=O)OC)[C@H](OC(C)=O)[C@]5(CC)C=CCN6CC[C@]43[C@@H]65)C2)C1 | 0.6 | 0.7 | 5.2
13 | CCCCc1ccc(C(=O)N[C@@]2(CC)C[C@H]3CN(CCc4c([nH]c5ccccc45)[C@@](C(=O)OC)(c4cc5c(cc4OC)N(C)[C@H]4[C@@](O)(C(=O)OC)[C@H](OC(C)=O)[C@]6(CC)C=CCN7CC[C@]54[C@@H]76)C3)C2)cc1 | 30 | 20 | 70
14 | CC[C@]1(NC(=O)c2ccc(OC(F)F)cc2)C[C@H]2CN(CCc3c([nH]c4ccccc34)[C@@](C(=O)OC)(c3cc4c(cc3OC)N(C)[C@H]3[C@@](O)(C(=O)OC)[C@H](OC(C)=O)[C@]5(CC)C=CCN6CC[C@]43[C@@H]65)C2)C1 | 5.9 | 1.7 | 17

Continued, in another order:

Row | IC50 [1] [nM] | IC50 [2] [nM] | SMILES | IC50 [3] [nM]
15 | 0.6 | 0.6 | CC[C@]1(NC(=O)c2ccc(OC(C)(C)C)cc2)C[C@H]2CN(CCc3c([nH]c4ccccc34)[C@@](C(=O)OC)(c3cc4c(cc3OC)N(C)[C@H]3[C@@](O)(C(=O)OC)[C@H](OC(C)=O)[C@]5(CC)C=CCN6CC[C@]43[C@@H]65)C2)C1 | 6.8
16 | 0.6 | 0.6 | CC[C@]1(NC(=O)c2ccc3ncccc3c2)C[C@H]2CN(CCc3c([nH]c4ccccc34)[C@@](C(=O)OC)(c3cc4c(cc3OC)N(C)[C@H]3[C@@](O)(C(=O)OC)[C@H](OC(C)=O)[C@]5(CC)C=CCN6CC[C@]43[C@@H]65)C2)C1 | 4.9
17 | 1.6 | 0.8 | CC[C@]1(NC(=O)c2ccc(NC(C)=O)cc2)C[C@H]2CN(CCc3c([nH]c4ccccc34)[C@@](C(=O)OC)(c3cc4c(cc3OC)N(C)[C@H]3[C@@](O)(C(=O)OC)[C@H](OC(C)=O)[C@]5(CC)C=CCN6CC[C@]43[C@@H]65)C2)C1 | 55
18 | 1.7 | 2.2 | CC[C@]1(NC(=O)c2ccc(OC)c(OC(F)(F)F)c2)C[C@H]2CN(CCc3c([nH]c4ccccc34)[C@@](C(=O)OC)(c3cc4c(cc3OC)N(C)[C@H]3[C@@](O)(C(=O)OC)[C@H](OC(C)=O)[C@]5(CC)C=CCN6CC[C@]43[C@@H]65)C2)C1 | 17
19 | 0.6 | 0.7 | CC[C@]1(NC(=O)c2ccc3cccnc3c2)C[C@H]2CN(CCc3c([nH]c4ccccc34)[C@@](C(=O)OC)(c3cc4c(cc3OC)N(C)[C@H]3[C@@](O)(C(=O)OC)[C@H](OC(C)=O)[C@]5(CC)C=CCN6CC[C@]43[C@@H]65)C2)C1 | 8.2
20 | 4 | 2.2 | CC[C@]1(NC(=O)c2cncn2C)C[C@H]2CN(CCc3c([nH]c4ccccc34)[C@@](C(=O)OC)(c3cc4c(cc3OC)N(C)[C@H]3[C@@](O)(C(=O)OC)[C@H](OC(C)=O)[C@]5(CC)C=CCN6CC[C@]43[C@@H]65)C2)C1 | 80
21 | 0.6 | 0.6 | CC[C@]1(NC(=O)c2ccc3nccnc3c2)C[C@H]2CN(CCc3c([nH]c4ccccc34)[C@@](C(=O)OC)(c3cc4c(cc3OC)N(C)[C@H]3[C@@](O)(C(=O)OC)[C@H](OC(C)=O)[C@]5(CC)C=CCN6CC[C@]43[C@@H]65)C2)C1 | 7.5
